Data reported in patent publication US20240425491A1, “HETEROARYL COMPOUNDS USEFUL IN THE TREATMENT OF COGNITIVE DISORDERS” (University College Cardiff Consultants Limited, priority 2021, published 2024).

What was measured:
[1] = target: T1, human recombinant GABAAR containing α5β3γ2 subunits (benzodiazepine site) (Homo sapiens, UniProt P18507+P31644); experiment: In vitro radioligand binding assay (α5-GABAAR Ki); details: inhibition of [3H]Ro15-1788 binding, membranes of L(tk−) cells expressing human α5β3γ2; read-out: α5-GABAAR Ki
T1 construct: expressed in transfected cells; host or cells: mouse L(tk−) cells, dexamethasone-inducible vector pMSGneo
Method in brief: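 Displacement of 4 nM [^3H]flumazenil from the benzodiazepine site, read by filtration and scintillation, gave IC50, converted to Ki (Cheng-Prusoff, saturation-derived Kd). Receptor: human α5β3γ2 membranes from L(tk^−) cells, 50 μg protein/well; 1 h, 4° C; TP003 1 μM defined nonspecific binding.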

[2] = target: T2, human α5β3γ2 GABAARs in mouse L(tk−) cells (Homo sapiens, UniProt P18507+P31644); experiment: In vitro electrophysiological recording assay (α5-GABAAR relative efficacy), QPatch; type: cell-based; details: GABA EC10-20
T2 construct: expressed in transfected cells; host or cells: mouse L(tk−) cells, dexamethasone-inducible vector pMSGneo
Method in brief: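 Whole-cell QPatch recordings at 20-22° C, −65 mV holding, in dexamethasone-induced (1 μM, 24 h) L(tk−) cells. Compound pre-applied ≥1 min, then co-applied with GABA EC10-20; percentage change in leak-corrected peak current, taken at ≥100× Ki, normalised to DMCM efficacy; 0.1% DMSO final.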

[3] = target: T3, human α5β3γ2L GABAA receptors in HEK293 cells (Homo sapiens, UniProt P18507+P31644); experiment: In vitro electrophysiological recording assay (α5-GABAAR relative efficacy), SyncroPatch; type: cell-based; details: Conc 0.1 μM; GABA EC10-20
T3 construct: expressed in transfected cells
Excerpt: Mouse L(tk^−) cells stably expressing human α1β3γ2, α2β3γ2, α3β3γ2, α5β3γ2 GABAARs generated by transfection of the individual subunits in the dexamethasone-inducible expression vector pMSGneo in mouse L(tk^−) cells (Hadingham et al., 1993, Mol. Pharmacol. 43:970-975 and 1993, Mol. Pharmacol. 44:1211-1218) were used for binding and functional assays. For certain compounds, HEK293 cells stable expressing the human α1β3γ2L, α2β3γ2L, α3β3γ2L and α5β3γ2L GABAA receptors were used to evaluate their functional effects in a SyncroPatch electrophysiology assay.
The efficacy of modulators was evaluated using either the automated patch-clamp platform QPatch16 (Sophion, Copenhagen, Denmark) or the SyncroPatch 384i (Nanion Technologies, Germany). Cells were harvested from flasks by enzymatic dissociation and re-suspended in serum-free medium.
For the Syncropatch recordings, a stacked addition protocol was used, in which GABA was rapidly applied and then washed off from the cell. All experiments were carried out at room temperature (20-22° C.) using a standard whole cell procedure. The currents recorded were acquired at 2 kHz and filtered using a Bessel filter. Whole-cell currents were measured at a holding potential of −80 mV.
For Syncropatch recordings, the extracellular recording solution contained: 140 mM NaCl, 4 mM KCl, 2 mM CaCl2), 1 mM MgCl2, 10 mM HEPES, 5 mM glucose (pH 7.4 and osmolarity of c. 300-310 mOsm/L). The intracellular recording solution contained: 90 mM KCl, 50 mM KF, 1.5 mM MgCl2, 11.1 mM EGTA and 10 mM HEPES (pH 7.2 and osmolarity of c. 300 mOsm/L). 2 mM of NaATP was added to the intracellular solution on the day of testing.
The effects of modulators were evaluated in the presence of a submaximal GABA concentration, giving typically 10-20% activation (GABA EC10-20) of the response elicited by a saturating GABA concentration. For QPatch recordings, to check and ensure baseline current stability before compound addition, five consecutive applications of GABA EC10-20 alone (each application with a 2 s duration, separated by minimum 1 min wash off periods) were performed before compound addition. The test compound was applied using the pipetting system of the QPatch system 1 min at least prior to co-application with GABA EC10-20. For SyncroPatch recordings, GABA EC20 alone was applied three times (1 s long applications, with wash steps in-between) before compound addition. This was followed by a 1-2 min pre-incubation with the test compound and then re-application of GABA EC10-20 in the presence of the compound. Finally, following a further wash step, a saturating concentration of GABA was applied, allowing the accurate evaluation for each cell of the percentage baseline activation elicited by the submaximal GABA applied.
The compounds were first dissolved in DMSO as a 10 mM stock and then further diluted to the testing concentrations so that the final DMSO concentration in the extracellular recording solution was kept constant at 0.1% for the QPatch recordings, or 0.2% for the SyncroPatch recordings.
The % efficacy of modulators was determined from the GABA elicited currents recorded in the presence and absence of the test compound, using the formula:
[((compound peak current−leak)−(GABA peak current−leak))/(GABA peak current−leak)]*100,
where ‘leak’ is the leak baseline current at −65 mV, ‘compound peak current’ is the current elicited by co-application of compound and GABA, and ‘GABA peak current’ is the current elicited by GABA alone during the 5th GABA application. The results were presented as ‘relative efficacy’ for each compound generally at a concentration equal or higher than 100 times their determined Ki. The relative efficacy of a compound was calculated by normalising its efficacy to the efficacy of methyl-6,7-dimethoxy-4-ethyl-beta-carboline-3-carboxylate (DMCM) that was separately determined produced an attenuation of GABA-induced currents of −57±4%, n=5.

T2 sequence (P31644 32-462): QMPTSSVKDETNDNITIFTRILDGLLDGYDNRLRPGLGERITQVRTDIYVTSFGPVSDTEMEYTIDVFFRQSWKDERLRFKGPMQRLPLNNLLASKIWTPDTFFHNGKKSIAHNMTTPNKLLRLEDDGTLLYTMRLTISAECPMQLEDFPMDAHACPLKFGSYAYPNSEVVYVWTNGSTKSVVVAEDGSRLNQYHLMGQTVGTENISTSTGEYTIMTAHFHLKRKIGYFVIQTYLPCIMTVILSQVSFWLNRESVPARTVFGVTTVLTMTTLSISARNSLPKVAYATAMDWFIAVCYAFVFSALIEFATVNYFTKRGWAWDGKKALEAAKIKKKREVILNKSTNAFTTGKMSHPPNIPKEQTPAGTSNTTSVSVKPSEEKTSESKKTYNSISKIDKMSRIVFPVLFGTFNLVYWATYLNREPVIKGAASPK
T2 sequence (P28472 26-473 partner): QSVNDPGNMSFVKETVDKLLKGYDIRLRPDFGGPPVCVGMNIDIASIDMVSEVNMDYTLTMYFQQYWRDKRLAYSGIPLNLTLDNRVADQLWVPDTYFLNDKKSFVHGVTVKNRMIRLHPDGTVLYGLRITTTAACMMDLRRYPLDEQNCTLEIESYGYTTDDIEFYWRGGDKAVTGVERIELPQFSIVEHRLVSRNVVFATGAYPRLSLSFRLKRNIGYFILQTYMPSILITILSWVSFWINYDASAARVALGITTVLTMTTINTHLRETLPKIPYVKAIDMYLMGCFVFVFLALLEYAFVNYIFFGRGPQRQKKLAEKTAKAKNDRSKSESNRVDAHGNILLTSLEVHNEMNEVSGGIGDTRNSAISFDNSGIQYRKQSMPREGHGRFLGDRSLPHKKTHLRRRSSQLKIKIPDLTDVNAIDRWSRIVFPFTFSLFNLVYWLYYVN
T2 sequence (P18507 40-475): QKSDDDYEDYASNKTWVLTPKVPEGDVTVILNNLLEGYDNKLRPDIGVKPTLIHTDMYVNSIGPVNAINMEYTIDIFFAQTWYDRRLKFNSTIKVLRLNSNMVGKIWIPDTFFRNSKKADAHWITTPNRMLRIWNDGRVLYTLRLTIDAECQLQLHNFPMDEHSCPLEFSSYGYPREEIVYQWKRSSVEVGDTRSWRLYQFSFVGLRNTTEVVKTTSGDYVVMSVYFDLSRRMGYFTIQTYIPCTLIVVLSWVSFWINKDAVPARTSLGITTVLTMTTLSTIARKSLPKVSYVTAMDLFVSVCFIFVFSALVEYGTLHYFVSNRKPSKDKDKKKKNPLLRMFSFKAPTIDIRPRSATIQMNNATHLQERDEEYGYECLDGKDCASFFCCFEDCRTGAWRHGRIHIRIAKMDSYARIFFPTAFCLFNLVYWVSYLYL
T1 sequence (P31644 32-462): as the sequence (P31644 32-462) above
T1 sequence (P28472 26-473 partner): as the sequence (P28472 26-473 partner) above
T1 sequence (P18507 40-475): as the sequence (P18507 40-475) above
T3 sequence (P31644 32-462): as the sequence (P31644 32-462) above
T3 sequence (P28472 26-473 partner): as the sequence (P28472 26-473 partner) above
T3 sequence (P18507 40-475): as the sequence (P18507 40-475) above

| SMILES | Ki [1] [nM] | α5-GABAAR Relative Efficacy (to DMCM), Qpatch ([2]; Conc 1 μM) | α5-GABAAR Relative Efficacy (to DMCM), SyncroPatch [3] | α5-GABAAR Relative Efficacy (to DMCM), Qpatch ([2]; Conc 0.3 μM) | α5-GABAAR Relative Efficacy (to DMCM), Qpatch ([2]; Conc 3 μM) | α5-GABAAR Relative Efficacy (to DMCM), Qpatch ([2]; Conc 0.1 μM) |
| --- | --- | --- | --- | --- | --- | --- |
| COc1nc(-c2cnoc2)ccc1NC(=O)c1c(-c2ccccc2)noc1C [Example 68, N-(6-Isoxazol-4-yl-2-methoxy-3-pyridyl)-5-methyl-3-phenyl-isoxazole-4-carboxamide] | 3.2 | −0.66 | −0.56 | – | – | – |
| COc1nc(-c2cnc(CN(C)C)nc2)ccc1NC(=O)c1c(-c2ccccc2)noc1C [Example 74, N-[6-[2-[(Dimethylamino)methyl]pyrimidin-5-yl]-2-methoxy-3-pyridyl]-5-methyl-3-phenyl-isoxazole-4-carboxamide] | 2.1 | – | −0.62 | −1.00 | – | – |
| COc1nc(-c2cnn3ncccc23)ccc1NC(=O)c1c(-c2ccccc2)noc1C [Example 83, N-(2-Methoxy-6-(pyrazolo[1,5-b]pyridazin-3-yl)pyridin-3-yl)-5-methyl-3-phenylisoxazole-4-carboxamide] | 13 | – | −0.50 | – | −0.71 | – |
| COc1nc(-c2cnc(N3CCC(O)CC3)nc2)ccc1NC(=O)c1c(-c2ccccc2)noc1C [Example 85, N-(6-(2-(4-Hydroxypiperidin-1-yl)pyrimidin-5-yl)-2-methoxypyridin-3-yl)-5-methyl-3-phenylisoxazole-4-carboxamide] | 1.7 | – | −0.94 | −0.92 | – | – |
| COc1nc(-c2cncc(OC(F)F)c2)ccc1NC(=O)c1c(-c2ccccc2)noc1C [Example 87, N-(5′-(Difluoromethoxy)-6-methoxy-[2,3′-bipyridin]-5-yl)-5-methyl-3-phenylisoxazole-4-carboxamide] | 5 | −0.71 | −0.44 | – | – | – |
| COc1nc(-c2ccc(N)nc2)ccc1NC(=O)c1c(-c2ccccc2)noc1C [Example 89, N-(6′-Amino-6-methoxy-[2,3′-bipyridin]-5-yl)-5-methyl-3-phenylisoxazole-4-carboxamide] | 3.1 | −0.64 | −0.62 | – | – | – |
| COc1nc(-c2cnc(O)c(C(F)(F)F)c2)ccc1NC(=O)c1c(-c2ccccc2)noc1C [Example 107, N-(6′-Hydroxy-6-methoxy-5′-(trifluoromethyl)-[2,3′-bipyridin]-5-yl)-5-methyl-3-phenylisoxazole-4-carboxamide] | 13.5 | – | −0.47 | – | −0.66 | – |
| COc1nc(-c2cnc(CN)nc2)ccc1NC(=O)c1c(-c2ccccc2)noc1C.Cl [Example 126, N-[6-[2-(Aminomethyl)pyrimidin-5-yl]-2-methoxy-3-pyridyl]-5-methyl-3-phenyl-isoxazole-4-carboxamide hydrochloride] | 1.1 | – | −0.55 | −0.68 | – | – |
| COc1nc(-c2ccc(N)nn2)ccc1NC(=O)c1c(-c2ccccc2)noc1C [Example 127, N-[6-(6-Aminopyridazin-3-yl)-2-methoxy-3-pyridyl]-5-methyl-3-phenyl-isoxazole-4-carboxamide] | 21.8 | – | −0.57 | – | −0.72 | – |
| COc1nc(-c2cnc(C(N)=O)nc2)ccc1NC(=O)c1c(-c2ccccc2)noc1C [Example 129, N-[6-(2-Carbamoylpyrimidin-5-yl)-2-methoxy-3-pyridyl]-5-methyl-3-phenyl-isoxazole-4-carboxamide] | 0.8 | – | −0.72 | – | – | −0.77 |
| COc1nc(-c2cnc3n2CCN(C)C3)ccc1NC(=O)c1c(-c2ccccc2)noc1C [Example 137, N-(2-Methoxy-6-(7-methyl-5,6,7,8-tetrahydroimidazol[1,2-a]pyrazin-3-yl)pyridin-3-yl)-5-methyl-3-phenylisoxazole-4-carboxamide] | 3.8 | −0.80 | −0.69 | – | – | – |
| COc1nc(-n2ccnc2)ccc1NC(=O)c1c(-c2ccc(F)cc2)noc1C [Example 141, 3-(4-Fluorophenyl)-N-(6-imidazol-1-yl-2-methoxy-3-pyridyl)-5-methyl-isoxazole-4-carboxamide] | 1.9 | – | −1.13 | −0.93 | – | – |
| COc1nc(-c2cnc3n2CCN(C(C)=O)C3)ccc1NC(=O)c1c(-c2ccccc2)noc1C [Example 143, N-(6-(7-Acetyl-5,6,7,8-tetrahydroimidazo[1,2-a]pyrazin-3-yl)-2-methoxypyridin-3-yl)-5-methyl-3-phenylisoxazole-4-carboxamide] | 0.4 | – | −0.72 | – | – | −0.80 |
| COc1nc(-c2cnc(CN(C)C)nc2)cnc1NC(=O)c1c(-c2ccccc2)noc1C [Example 144, N-[5-[2-[(Dimethylamino)methyl]pyrimidin-5-yl]-3-methoxy-pyrazin-2-yl]-5-methyl-3-phenyl-isoxazole-4-carboxamide] | 1.4 | – | −1.05 | −0.95 | – | – |
| COc1nc(-c2cnc(CN)nc2)cnc1NC(=O)c1c(-c2ccccc2)noc1C.Cl [Example 156, N-[5-[2-(Aminomethyl)pyrimidin-5-yl]-3-methoxy-pyrazin-2-yl]-5-methyl-3-phenyl-isoxazole-4-carboxamide hydrochloride] | 2.7 | – | −0.65 | −0.91 | – | – |
| COc1nc(-c2ccn3nc(N)nc3c2)ccc1NC(=O)c1c(C)nnn1-c1ccccc1 [Example 159, N-(6-(2-Amino-[1,2,4]triazolo[1,5-a]pyridin-7-yl)-2-methoxypyridin-3-yl)-4-methyl-1-phenyl-1H-1,2,3-triazole-5-carboxamide] | 9.2 | −0.82 | −0.81 | – | – | – |
| COc1nc(-n2cnc3c2CNCC3)ccc1NC(=O)c1c(-c2ccccc2)noc1C.Cl.Cl [Example 179, N-[2-Methoxy-6-(4,5,6,7-tetrahydroimidazo[4,5-c]pyridin-3-yl)-3-pyridyl]-5-methyl-3-phenyl-isoxazole-4-carboxamide dihydrochloride] | 3 | – | −0.38 | −0.65 | – | – |
